Results from patent US7687473B2, “5-amino-4-imidazolecarboxamide riboside and its nucleobase as potentiators of antifolate transport and metabolism” (Health Research, Inc., priority 2005, dated 2010).
Like-named read-outs stand apart in the source and are kept apart here.

Assays:
[1] = system: CCRF-CEM human leukemia cells; assay: Synthesis of methotrexate polyglutamates by CCRF-CEM cells; assay type: cell-based
Protocol: MTX polyglutamate synthesis. […] At the end of the exposure cells were rapidly chilled to 4 degrees C., harvested by centrifugation at 1000×g for 5 min, washed twice with iced 0.9% NaCl by centrifugation in the same manner. One mL of boiling 50 mM Na-phosphate, pH 5.5 was added, the pellet was triturated and the sample boiled for 5 min. The sample was rapidly cooled to 4 degrees C. Debris was removed by centrifugation as above. The supernatant was further clarified by centrifugation through an Amicon MPS-1 filter unit. […] A suitable volume was injected onto a reversed-phase HPLC column (C18) and eluted with a gradient of from 4-14% acetonitrile over about 43 min. One min fractions were collected and, after addition of 10 ml scintillation fluid, were quantitated by liquid scintillation counting.

CCRF-CEM cells [2] = assay: [3H]MTX uptake (initial velocity and 30 min accumulation) in CCRF-CEM cells; assay type: cell-based, human; details: for Q10 for extent of [3H]MTX uptake at 30 min / Q10 for vi of [3H]MTX uptake (37° vs. 27°): 1 μM TMTX; for Vmax/Kt from vi (0-5 min) data: 1-10 μM MTX
Protocol: (§1) Quantitation of folate and antifolate uptake. The method is essentially as follows. Briefly, logarithmically growing (3-5×10^5/ml) CCRF-CEM cells were harvested at room temperature by centrifugation at 1000×g for 5 min. After washing with the appropriate medium, cells were suspended at ≈2×10^7 cells/ml for use in transport studies. […] Anion-free MHS contains 250 mM sucrose and 20 mM HEPES, titrated to pH 7.4 with MgO. […] Uptake was measured as a function of time for 30 min (for rate and extent measurements) or over 5 min (studies requiring initial velocities). […] Uptake was terminated by diluting 100 μL samples into 1 ml of iced 0.9% NaCl. […] The supernatant was aspirated. The cell pellet was washed once with 1 ml iced 0.9% NaCl and centrifuged as above. The washed pellet was solubilized in 1 ml of 0.3% Triton X-100 by incubation for 60 min at 37° C. The solubilized pellet was transferred to a scintillation vial, 10 ml of Liquiscint (National Diagnostics, Atlanta, Ga.) was added and radioactivity was quantitated in a Beckman Model LS6500 liquid scintillation counter. Separate samples at the longest incubation time used in a particular experiment were harvested for HPLC analysis of intracellular contents as above, except that after the second wash the pellets were extracted with 1 ml boiling 0.1 M Na-phosphate, pH 5.5. The extract was clarified by centrifugation and the supernatant was filtered through an MPS-1 filter unit (Amicon) prior to HPLC analysis.

[3] = molecular target: T1, reduced folate carrier (RFC) (Homo sapiens, UniProt P41440); assay: Kinetic constants for influx of [3H]MTX by CCRF-CEM cells; assay type: cell-based
T1 construct: endogenous in cells; host or cells: CCRF-CEM (parental)
T1 sequence (P41440 1-591): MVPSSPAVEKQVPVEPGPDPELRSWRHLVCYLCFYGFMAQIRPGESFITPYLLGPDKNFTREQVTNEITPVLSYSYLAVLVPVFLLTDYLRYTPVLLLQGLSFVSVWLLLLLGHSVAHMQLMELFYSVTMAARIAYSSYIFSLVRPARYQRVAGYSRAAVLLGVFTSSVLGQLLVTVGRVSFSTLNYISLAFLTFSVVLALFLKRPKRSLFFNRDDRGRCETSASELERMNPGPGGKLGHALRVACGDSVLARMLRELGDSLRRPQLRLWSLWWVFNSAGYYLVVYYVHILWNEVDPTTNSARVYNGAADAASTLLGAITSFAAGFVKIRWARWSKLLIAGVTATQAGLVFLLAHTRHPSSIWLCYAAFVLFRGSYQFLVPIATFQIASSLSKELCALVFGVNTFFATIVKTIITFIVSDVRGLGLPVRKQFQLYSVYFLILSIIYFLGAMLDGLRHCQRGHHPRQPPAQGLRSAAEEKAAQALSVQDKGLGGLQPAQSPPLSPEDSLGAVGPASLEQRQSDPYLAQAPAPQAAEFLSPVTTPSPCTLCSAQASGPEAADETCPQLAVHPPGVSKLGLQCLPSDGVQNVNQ
Protocol: as §1
Inhibition of the vi of uptake was measured after pre-incubation of CCRF-CEM cells either with TMTX alone (measuring inhibition at the RFC) or with TMTX+Z (measuring inhibition during Z potentiation). […] All studies were carried out in standard transport medium. Inhibitory potency was measured in two series of experiments and AMT was included in each series as an internal control. Values are average±range of two determinations. […] Values are average±range for duplicate determinations.

CCRF-CEM cells [4] = assay: [3H]MTX efflux from CCRF-CEM cells
[5] = system: K562 human chronic myelogenous leukemia cell line; assay: [3H]MTX influx in K562 cells; assay type: cell-based; details: 0.5 mM Z; data not shown
CCRF-CEM cells [6] = assay: cells; assay type: cell-based, human; details: read-out: EC50, growth inhibition
Protocol: Inhibition of growth of human cell lines in vitro. Inhibition of growth of CCRF-CEM in continuous and intermittent drug exposures was measured. EC50 values were determined from plots of percent control growth versus the logarithm of drug concentration.
[…]; n=2). […]; n=2). Values presented are average±S.D. for n>2 and average±range for n=2. […] […]; EC50 data may therefore underestimate the biological potency.

[7] = 4 hr exposure to 2 μM [3H]MTX, Z 500 μM where present
[8] = influx of [3H]MTX, pre-incubation with solvent (MTX alone), 1 μM TMTX, or 1 μM TMTX + 0.5 mM Z
[9] = 500 μM Z, 4 hr exposure to 2 μM [3H]MTX

## CN(Cc1cnc2nc(N)nc(N)c2n1)c1ccc(C(=O)N[C@@H](CCC(=O)O)C(=O)O)cc1 [MTX, 4-amino-10-methylpteroylglutamic acid]
[1]; [7]
  4-NH2-10-CH3-PteGlun, N ≧ 3: 3.8 pmol/10^7 cells
  4-NH2-10-CH3-PteGlun, n = 1 (MTX): 26.2 pmol/10^7 cells
  4-NH2-10-CH3-PteGlun, n = 2: 23.8 pmol/10^7 cells
  4-NH2-10-CH3-PteGlun, n = 3: 2.3 pmol/10^7 cells
  4-NH2-10-CH3-PteGlun, n = 4: 1.4 pmol/10^7 cells
  4-NH2-10-CH3-PteGlun, n = 5: 0.1 pmol/10^7 cells
  4-NH2-10-CH3-PteGlun, n ≧ 2: 27.6 pmol/10^7 cells
  Total drug: 53.8 pmol/10^7 cells
CCRF-CEM cells [2]; absence of Z
  Intracellular radiolabel that is MTX at 30 min (HPLC): 86%
  Intracellular radiolabel that is MTX-γ-Glu at 30 min (HPLC): 12%
  Q10 for extent of [3H]MTX uptake at 30 min: 3.45±0.15
  Q10 for vi of [3H]MTX uptake (37° vs. 27°): 4.6±0.3
  Vmax/Kt from vi (0-5 min) data: 0.44
CCRF-CEM cells [2]; presence of 0.5 mM Z
  Q10 for extent of [3H]MTX uptake at 30 min: 3.65±0.15
  Q10 for vi of [3H]MTX uptake (37° vs. 27°): 5.9±0.1
  Vmax/Kt from vi (0-5 min) data: 0.47
CCRF-CEM cells [2]; presence of 0.5 mM Z, all MTX concentrations 1-10 μM, assuming 0.55 pL/cell
  [MTX]i/[MTX]e at 30 min: ≥ 1.9
CCRF-CEM cells [2]; presence of Z
  Intracellular radiolabel that is MTX at 30 min (HPLC): 83%
  Intracellular radiolabel that is MTX-γ-(Glu)2 at 30 min (HPLC): < 1%
  Intracellular radiolabel that is MTX-γ-Glu at 30 min (HPLC): 7.5%
[3]; [8]
  Kt: 3.0 ± 0.8 µM
  Vmax: 5.8 ± 0.9 pmol/min/10^7 cells
CCRF-CEM cells [4]; loading and efflux each ±0.5 mM Z (cross-over), 2 μM [3H]MTX
  Efflux t1/2: 14.6 to 18.7 min

## NC(=O)c1ncn([C@@H]2O[C@H](CO)[C@@H](O)[C@H]2O)c1N [Z, 5-amino-4-imidazolecarboxamide riboside]
[1]; [9]
  Increase of MTX polyglutamates (n≧2) accumulation: 3.5 fold
  Increase of longer MTX polyglutamates (n≧3): 6 fold
  Increase of total drug accumulation: 3 fold
[1]; 500 μM Z, data not shown
  MTXGn accumulation at 1 and 10 μM [3H]MTX: Increased MTXGn accumulation
[1]; cells initially treated with Z, data not shown
  Drug retained after 2 hr efflux following 4 hr uptake: much higher levels of drug
CCRF-CEM cells [2]; 0.5 mM Z, 10 μM [3H]MTX
  Potentiation of 30 min accumulation (highest): 6 fold
CCRF-CEM cells [2]; 0.5 mM Z, HBSS
  Potentiation of accumulation at 30 min: ≈ 4 fold
CCRF-CEM cells [2]; 0.5 mM Z, MHS
  Potentiation of accumulation at 30 min: ≈ 2 fold
CCRF-CEM cells [2]; 0.5 mM Z, standard medium
  Potentiation of accumulation at 30 min: ≈ 2 fold
CCRF-CEM cells [2]; Z added 5 min before 2 μM [3H]MTX
  Effect on initial influx velocity (vi; 0-5 min): does not affect vi
CCRF-CEM cells [2]; Z added 10 min after [3H]MTX, data not shown
  Delay before potentiation of [3H]MTX uptake: ≥ 5 min
CCRF-CEM cells [2]; Z at 0.5-1.0 mM, 2 μM [3H]MTX
  Increase of MTX accumulation at 30 min: ≥ 3 fold
CCRF-CEM cells [2]; Z present with TMTX in 10 min preincubation
  Onset of potentiation of [3H]MTX uptake: no delay in potentiation
CCRF-CEM cells [2]; all levels of MTX (1-10 μM), 0.5 mM Z
  Delay before the onset of Z potentiation: ≈ 10 min
[5]
  Potentiation of [3H]MTX influx: potentiates
[3]; Z addition in presence of TMTX
  Increase of Vmax of MTX influx: ≈ 3 fold
CCRF-CEM cells [6]; 0-24/120 hr exposure
  EC50: 410 ± 50 µM
CCRF-CEM cells [6]; 120 hr exposure
  EC50: 130 ± 20 µM
CCRF-CEM cells [4]; 0.5 mM Z during uptake and/or efflux
  Effect on MTX efflux rates: No significant difference
